The text below walks through data of PMC3678123 (Bioorganic & medicinal chemistry letters, 2013).

“Also recorded” adds a separate entry of the source.

For the first experiment, the target named is recombinant human DAAO (Homo sapiens, UniProt P14920). As to the kind of experiment: Inhibition of recombinant human DAAO. Type of experiment: biochemical. Conditions: qualitative statement.
recombinant human DAAO, sequence (P14920 whole entry): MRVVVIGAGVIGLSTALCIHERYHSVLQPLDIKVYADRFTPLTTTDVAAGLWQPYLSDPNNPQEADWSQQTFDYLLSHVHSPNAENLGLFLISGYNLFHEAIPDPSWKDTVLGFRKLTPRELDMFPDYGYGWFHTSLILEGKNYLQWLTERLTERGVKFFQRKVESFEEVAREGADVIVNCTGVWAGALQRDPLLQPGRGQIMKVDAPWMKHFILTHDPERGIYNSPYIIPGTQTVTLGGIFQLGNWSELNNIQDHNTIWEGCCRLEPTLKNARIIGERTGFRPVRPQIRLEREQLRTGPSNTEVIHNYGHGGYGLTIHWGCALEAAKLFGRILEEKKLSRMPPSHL
Regarding `O=c1cc(COCc2ccccc2)occ1O` [9j], the “DAAO inhibitory potency (in words)” value is “dramatic loss of potency”.

As to `CCOCc1cc(=O)c(O)co1` [9b], the “DAAO inhibitory potency (in words)” value is recorded as “significantly less potent than kojic acid”.

In the case of `O=c1cc(COC2CCCCO2)occ1O` (stereo not drawn) [9k], the “DAAO inhibitory potency (in words)” value is recorded as “significantly less potent than kojic acid”.

On to `O=c1cc(CCc2ccccc2)occ1O` [compound 17, 5-hydroxy-2-phenethyl-4H-pyran-4-one], for which the “DAAO inhibitory potency (in words)” value was “slightly more potent than the ether counterpart 9c”.

As to `O=c1ccn(CCc2ccccc2)cc1O` [compound 19, 3-hydroxy-1-phenethyl-4(1H)-pyridinone], the “DAAO inhibitory potency (in words)” value is “no inhibitory activity”.

As to `COc1coc(CO)cc1=O` [6b], the “DAAO inhibitory potency (in words)” value was “complete loss of potency; also recorded: completely devoid of any inhibitory activity”.

With `COCc1cc(=O)c(O)co1` [9a], the “DAAO inhibitory potency (in words)” value is listed as “significantly less potent than kojic acid”.

For `O=c1cc(COc2ccccc2)occ1O` [9c], the “DAAO inhibitory potency (in words)” value was “potency comparable or superior to that of kojic acid”.

In another experiment the test system is DAAO.
Experiment: not given
Conditions: cited from earlier work.
`O=C(O)c1cc(CCc2ccccc2)[nH]n1` [5d]: the concentration for half-maximal inhibition (IC50) is less than 1 µM.

Take `O=C(O)c1ccc[nH]1` [5a, pyrrole-2-carboxylic acid]: the 50% inhibitory concentration (IC50) was less than 10 µM.

For `O=c1[nH]c2c(F)cc(F)cc2n1O` [compound 3, 4,6-Difluoro-1-hydroxy-1Hbenzo[d]imidazol-2(3H)-one], the IC50 is 0.08 µM.

Turning to `Oc1noc2cc(Cl)ccc12` [compound 1, 6-chlorobenzo[d]isoxazol-3-ol], the half-maximal inhibitory concentration (IC50) was 0.188 µM.

On to `O=C(O)c1cc(CCc2ccccc2)c[nH]1` [5c], for which the IC50 is less than 1 µM.

For the compound `O=c1oc2ccccc2cc1O` [2b, 3-hydroxychromen-2-one], the half-inhibitory concentration (IC50) is 0.44 µM.

With `O=C(O)c1cc[nH]n1` [5b, 1H-pyrazole-3-carboxylic acid], the 50% inhibitory concentration (IC50) is less than 100 µM.
